Laboratory results reported in the NIST ThermoML archive (doi:10.1021/acs.jced.7b00221).

Experiment: xn = mol fraction of the nth substance listed
Conditions: 100 kPa, Liquid; for viscosity: Cone and plate viscometry; for mass density: Vibrating tube method

CCCCCCCC[P+](CC)(CC)CC.O=[N+]([O-])c1cn[n-]c1 [triethyloctylphosphonium 4-nitropyrazolide] + CCCCCCn1cc[n+](C)c1C.O=S(=O)([N-]S(=O)(=O)C(F)(F)F)C(F)(F)F
Conditions	mass density [kg/m3]	viscosity [mPa·s]
278.15 K, x1 = 0.124	–	602
278.15 K, x1 = 0.25	–	771
278.15 K, x1 = 0.401	–	1011
278.15 K, x1 = 0.5	–	1156
278.15 K, x1 = 0.6	–	1244
278.15 K, x1 = 0.751	–	1382
278.15 K, x1 = 0.9	–	1386
283.15 K, x1 = 0.124	1331.5	409
283.15 K, x1 = 0.25	1290	510
283.15 K, x1 = 0.401	–	658
283.15 K, x1 = 0.5	1206.7	742
283.15 K, x1 = 0.6	–	795
283.15 K, x1 = 0.751	1123.8	883
283.15 K, x1 = 0.9	1074.2	890
283.15 K, x1 = 1	1040.7	–
288.15 K, x1 = 0.124	1327.1	283
288.15 K, x1 = 0.25	1285.9	348
288.15 K, x1 = 0.401	–	442
288.15 K, x1 = 0.5	1203	491
288.15 K, x1 = 0.6	–	524
288.15 K, x1 = 0.751	1120.4	580
288.15 K, x1 = 0.9	1071	589
288.15 K, x1 = 1	1037.7	–
293.15 K, x1 = 0.124	1322.8	204
293.15 K, x1 = 0.25	1281.8	246
293.15 K, x1 = 0.401	–	307
293.15 K, x1 = 0.5	1199.2	338
293.15 K, x1 = 0.6	–	359
293.15 K, x1 = 0.751	1117	396
293.15 K, x1 = 0.9	1067.8	404
293.15 K, x1 = 1	1034.6	–
295.15 K, x1 = 0.124	1321	–
295.15 K, x1 = 0.25	1280.1	–
295.15 K, x1 = 0.5	1197.7	–
295.15 K, x1 = 0.751	1115.6	–
295.15 K, x1 = 0.9	1066.5	–
295.15 K, x1 = 1	1033.4	–
298.15 K, x1 = 0.124	1318.5	151
298.15 K, x1 = 0.25	1277.6	179
298.15 K, x1 = 0.401	–	220
298.15 K, x1 = 0.5	1195.5	241
298.15 K, x1 = 0.6	–	254
298.15 K, x1 = 0.751	1113.6	279
298.15 K, x1 = 0.9	1064.6	285
298.15 K, x1 = 1	1031.5	–
303.15 K, x1 = 0.124	1314.3	115
303.15 K, x1 = 0.25	1273.7	135
303.15 K, x1 = 0.401	–	163
303.15 K, x1 = 0.5	1191.8	177
303.15 K, x1 = 0.6	–	185
303.15 K, x1 = 0.751	1110.2	203
303.15 K, x1 = 0.9	1061.4	208
303.15 K, x1 = 1	1028.5	–
308.15 K, x1 = 0.124	1310.1	90
308.15 K, x1 = 0.25	1269.7	104
308.15 K, x1 = 0.401	–	124
308.15 K, x1 = 0.5	1188.1	134
308.15 K, x1 = 0.6	–	139
308.15 K, x1 = 0.751	1106.9	152
308.15 K, x1 = 0.9	1058.3	156
308.15 K, x1 = 1	1025.5	–
313.15 K, x1 = 0.124	1306	72
313.15 K, x1 = 0.25	1265.7	82
313.15 K, x1 = 0.401	–	97
313.15 K, x1 = 0.5	1184.5	103
313.15 K, x1 = 0.6	–	106
313.15 K, x1 = 0.751	1103.7	117
313.15 K, x1 = 0.9	1055.3	119
313.15 K, x1 = 1	1022.6	–
318.15 K, x1 = 0.124	1301.8	58
318.15 K, x1 = 0.25	1261.7	65
318.15 K, x1 = 0.401	–	77
318.15 K, x1 = 0.5	1180.9	82
318.15 K, x1 = 0.6	–	83
318.15 K, x1 = 0.751	1100.4	91
318.15 K, x1 = 0.9	1052.2	94
318.15 K, x1 = 1	1019.6	–
323.15 K, x1 = 0.124	1297.6	–
323.15 K, x1 = 0.25	1257.7	53
323.15 K, x1 = 0.401	–	63
323.15 K, x1 = 0.5	1177.3	66
323.15 K, x1 = 0.6	–	67
323.15 K, x1 = 0.751	1097.1	73
323.15 K, x1 = 0.9	1049.1	75
323.15 K, x1 = 1	1016.7	–
328.15 K, x1 = 0.124	1293.5	–
328.15 K, x1 = 0.25	1253.8	–
328.15 K, x1 = 0.5	1173.7	–
328.15 K, x1 = 0.751	1093.9	–
328.15 K, x1 = 0.9	1046.1	–
328.15 K, x1 = 1	1013.8	–
333.15 K, x1 = 0.124	1289.3	–
333.15 K, x1 = 0.25	1249.8	–
333.15 K, x1 = 0.5	1170.2	–
333.15 K, x1 = 0.751	1090.6	–
333.15 K, x1 = 0.9	1043	–
333.15 K, x1 = 1	1010.8	–
338.15 K, x1 = 0.124	1285.1	–
338.15 K, x1 = 0.25	1245.8	–
338.15 K, x1 = 0.5	1166.6	–
338.15 K, x1 = 0.751	1087.4	–
338.15 K, x1 = 0.9	1040	–
338.15 K, x1 = 1	1007.9	–
343.15 K, x1 = 0.124	1281	–
343.15 K, x1 = 0.25	1241.9	–
343.15 K, x1 = 0.5	1163	–
343.15 K, x1 = 0.751	1084.1	–
343.15 K, x1 = 0.9	1036.9	–
343.15 K, x1 = 1	1005	–
348.15 K, x1 = 0.124	1276.9	–
348.15 K, x1 = 0.25	1237.9	–
348.15 K, x1 = 0.5	1159.5	–
348.15 K, x1 = 0.751	1080.9	–
348.15 K, x1 = 0.9	1033.9	–
348.15 K, x1 = 1	1002.1	–
353.15 K, x1 = 0.124	1272.7	–
353.15 K, x1 = 0.25	1234	–
353.15 K, x1 = 0.5	1155.9	–
353.15 K, x1 = 0.751	1077.7	–
353.15 K, x1 = 0.9	1030.9	–
353.15 K, x1 = 1	999.2	–
